Results published in patent publication US9045493B2, “Furo[3,2-b]- and thieno[3,2-b]pyridin derivatives” (Merck Patent GmbH, priority 2012, dated 2015).

Assays:
phospho-IRF3 @ Ser 386 = assay: Cell test: dose response inhibition of phospho-IRF3 @ Ser 386 in MDA-MB-468 cells; assay type: cell-based; conditions: Homo sapiens, Poly(I:C) stimulation, read-out: IC50 (reference inhibitor, phospho-IRF3 cell test)
Source text: Dose Response Inhibition of Phospho-IRF3 @ Ser 386 Cell/MDAMB468/INH/PHOS/IMAG/pIRF3
This assay has been devised in order to assess the efficacy/potency of TBK1/IKKε inhibitor compounds based on the immunocytochemical detection of nuclear localised phospho-IRF3, a target directly downstream of TBK1.
Treatment with Polyinosine-polycytidylic acid (poly(I:C), a synthetic analog of doublestranded RNA (dsRNA), a molecular pattern associated with viral infection which is recognized by Toll-like receptor 3 (TLR3) is used to induce TBK1/IKKe activity and IRF3 phosphorylation at Ser386.
• Day 1: MDA-MB-468 cells are detached with HyQ-Tase, counted, and seeded into a 384-well clear bottom TC-surface plate at density of 10,000 cells per well in a total volume of 35 ul complete medium. Alternatively cells are directly seeded from frozen vials. • Day 2: Cells are pre-treated with inhibitor compounds for 1 h prior to Poly(I:C) stimulation. After 2 h of incubation with Poly(I:C), cells are fixed in (para)formaldehyde (PFA) and permeabilized with methanol (MeOH). The cells are then blocked and incubated with an anti-pIRF3 antibody at 4° C. overnight. • Day 3: The primary antibody is washed off, an AlexaFluor488-conjugated secondary is added, cells are counterstained with propidium iodide followed by image acquisition on IMX Ultra high content reader.

[1] = biological target: T1, TANK binding kinase (TBK1) (Homo sapiens, UniProt Q9UHD2); assay: TBK1 enzyme assay (384-well Flashplate kinase assay); assay type: biochemical; conditions: 10 μM ATP, 120 Min at 30° C.
T1 sequence (Q9UHD2 1-729): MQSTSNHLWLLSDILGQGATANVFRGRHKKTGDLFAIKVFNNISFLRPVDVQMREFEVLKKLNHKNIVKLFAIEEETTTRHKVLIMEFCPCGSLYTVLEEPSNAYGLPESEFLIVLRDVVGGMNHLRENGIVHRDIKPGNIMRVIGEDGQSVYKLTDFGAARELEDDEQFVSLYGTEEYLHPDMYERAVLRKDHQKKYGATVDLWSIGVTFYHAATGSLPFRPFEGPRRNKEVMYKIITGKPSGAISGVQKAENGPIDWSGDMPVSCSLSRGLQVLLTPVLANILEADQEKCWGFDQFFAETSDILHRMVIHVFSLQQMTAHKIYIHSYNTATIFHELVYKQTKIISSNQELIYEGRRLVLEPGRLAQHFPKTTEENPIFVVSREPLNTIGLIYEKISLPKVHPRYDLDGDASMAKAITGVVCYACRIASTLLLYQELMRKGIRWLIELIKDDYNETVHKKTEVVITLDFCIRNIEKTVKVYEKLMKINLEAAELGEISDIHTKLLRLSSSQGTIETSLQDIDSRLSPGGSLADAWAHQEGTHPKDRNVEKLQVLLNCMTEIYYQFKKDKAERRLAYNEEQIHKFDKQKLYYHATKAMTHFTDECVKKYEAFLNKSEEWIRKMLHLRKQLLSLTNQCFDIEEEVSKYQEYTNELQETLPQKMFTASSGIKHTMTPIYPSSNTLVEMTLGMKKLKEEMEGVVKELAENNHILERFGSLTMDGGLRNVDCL
How it was run: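 Radiometric Flashplate assay: 0.6 nM TBK1, 800 nM biotinylated MELK-derived peptide and 10 μM ATP with 33P-ATP, 120 min at 30 °C in MOPS/Mg-acetate buffer pH 7.5. Stopped with EDTA; nonspecific signal defined with 100 nM staurosporine; IC50 from counted radioactivity.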

IKKε = biological target: T2, IKKε (Homo sapiens, UniProt Q14164); assay: IKKε kinase assay (384-well Flashplate); assay type: biochemical; conditions: 10 μM ATP, 2 hours at 30° C.; read-out: IKKε enzyme assay IC50
T2 sequence (Q14164 1-716): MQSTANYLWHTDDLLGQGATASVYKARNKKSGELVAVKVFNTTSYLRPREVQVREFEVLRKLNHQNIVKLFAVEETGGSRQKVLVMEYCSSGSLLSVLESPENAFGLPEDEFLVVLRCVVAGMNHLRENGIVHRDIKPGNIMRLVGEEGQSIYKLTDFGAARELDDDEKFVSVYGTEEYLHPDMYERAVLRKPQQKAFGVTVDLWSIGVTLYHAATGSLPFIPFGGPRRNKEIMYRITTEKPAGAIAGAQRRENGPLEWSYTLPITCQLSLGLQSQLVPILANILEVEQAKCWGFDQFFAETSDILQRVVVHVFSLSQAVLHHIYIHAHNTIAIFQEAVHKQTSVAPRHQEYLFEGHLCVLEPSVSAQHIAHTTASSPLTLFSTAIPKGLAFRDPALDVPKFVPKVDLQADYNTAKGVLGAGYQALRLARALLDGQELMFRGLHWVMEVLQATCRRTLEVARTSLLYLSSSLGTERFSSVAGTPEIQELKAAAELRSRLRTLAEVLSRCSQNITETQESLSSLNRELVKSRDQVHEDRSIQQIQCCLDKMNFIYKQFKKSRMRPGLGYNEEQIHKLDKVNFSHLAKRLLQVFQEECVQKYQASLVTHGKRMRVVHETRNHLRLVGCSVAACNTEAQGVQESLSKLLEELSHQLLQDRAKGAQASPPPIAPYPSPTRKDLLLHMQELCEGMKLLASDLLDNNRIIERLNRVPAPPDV
How it was run: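 1 nM IKKε with 800 nM biotinylated IκBα(19-42) peptide and 10 μM ATP spiked with ^33P-ATP, 2 h at 30 °C in MOPS buffer pH 7.5. EDTA stop, Flashplate capture, washes, then radioactivity counted; IC50 derived.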

IC50 (phospho-IRF3 @ Ser 386)	IC50 [1]	IC50 (IKKε)	Compound
0.2 to 0.8 µM	–	–	O=C(NCCCNc1nc(Nc2cccc(NC(=O)N3CCCC3)c2)ncc1I)c1cccs1 [BX-795]
–	< 0.3 µM	< 0.3 µM	CCN(CCN(C)C)C(=O)c1ccc(-c2cc3nccc(-c4ccc(OC5CCOCC5)c(C#N)c4)c3s2)cc1OC [Compound A51]
–	< 0.3 µM	< 0.3 µM	COc1cc(-c2cc3nccc(-c4ccc(OC5CCOCC5)c(C#N)c4)c3o2)ccc1C(=O)NC1CCN(C)CC1 [Compound A99]
–	0.3 to 3 µM	0.3 to 3 µM	CS(=O)(=O)c1cncc(-c2cc3nccc(-c4ccc(OC5CCOCC5)c(C#N)c4)c3o2)c1 [Compound A70]
–	0.3 to 3 µM	0.3 to 3 µM	N#Cc1cc(-c2ccnc3cc(-c4ccc(C(=O)O)cc4)oc23)ccc1OC1CCOCC1 [Compound A16a, 4-{7-[3-Cyano-4-(tetrahydro-pyran-4-yloxy)-phenyl]-furo[3,2-b]pyridin-2-yl}-benzoic acid]
–	< 0.3 µM	< 0.3 µM	COc1cc(-c2cc3nccc(-c4ccc(OC5CCOCC5)c(C#N)c4)c3o2)ccc1C(=O)N(C)C1CCOCC1 [Compound A102]
–	0.3 to 3 µM	< 0.3 µM	Cc1occc1-c1cc2nccc(-c3ccc(OC4CCOCC4)c(C#N)c3)c2o1 [Compound A55]
–	< 0.3 µM	< 0.3 µM	COc1cc(-c2cc3nccc(-c4ccc(OC5CCOC5)c(C#N)c4)c3o2)ccc1C(=O)N1CCNCC1 (stereo not drawn) [Compound A68]
–	< 0.3 µM	< 0.3 µM	N#Cc1cc(-c2ccnc3cc(-c4ccc(C(=O)NCCN5CCOCC5)cc4)oc23)ccc1OC1CCOCC1 [Compound A79]
–	< 0.3 µM	< 0.3 µM	CCN(C)C(=O)c1ccc(-c2cc3nccc(-c4ccc(OC5CCOCC5)c(C#N)c4)c3o2)cc1 [Compound A24, 4-{7-[3-cyano-4-(tetrahydro-pyran-4-yloxy)-phenyl]-furo[3,2-b]pyridin-2-yl}-N-ethyl-N-methyl-benzamide]
–	< 0.3 µM	< 0.3 µM	CN(CCO)C(=O)c1ccc(-c2cc3nccc(-c4ccc(OC5CCOC5)c(C#N)c4)c3s2)cc1 (stereo not drawn) [Compound A95]
–	< 0.3 µM	< 0.3 µM	N#Cc1cc(-c2ccnc3cc(-c4ccc(C(=O)NCCN5CCNC5=O)cc4)oc23)ccc1OC1CCOCC1 [Compound A77]
–	< 0.3 µM	< 0.3 µM	N#Cc1cc(-c2ccnc3cc(-c4ccc(C(=O)N5CCNCC5)cc4)oc23)ccc1N1CCOCC1 [Compound A73]
–	< 0.3 µM	< 0.3 µM	CN(C)CCNC(=O)c1ccc(-c2cc3nccc(-c4ccc(OC5CCOCC5)c(C#N)c4)c3o2)cc1 [Compound A27, 4-{7-[3-cyano-4-(tetrahydro-pyran-4-yloxy)-phenyl]-furo[3,2-b]pyridin-2-yl}-N-(2-dimethylamino-ethyl)-benzamide]
–	< 0.3 µM	< 0.3 µM	CCN(CCOC)C(=O)c1ccc(-c2cc3nccc(-c4ccc(OC5CCOCC5)c(C#N)c4)c3o2)cc1 [Compound A3, 4-{7-[3-cyano-4-(tetrahydro-pyran-4-yloxy)-phenyl]-furo[3,2-b]pyridin-2-yl}-N-ethyl-N-(2-methoxy-ethyl)-benzamide]
–	< 0.3 µM	< 0.3 µM	COc1cc(-c2cc3nccc(-c4ccc(OC5CCOCC5)c(C#N)c4)c3o2)ccc1C(=O)N1CCNC(=O)C1 [Compound A109]
–	< 0.3 µM	< 0.3 µM	N#Cc1cc(-c2ccnc3cc(-c4cnn(C5CCNCC5)c4)sc23)ccc1OC1CCOCC1 [Compound A96]
–	0.3 to 3 µM	0.3 to 3 µM	N#Cc1cc(-c2ccnc3cc(-c4ccc(C(=O)NCCC(F)(F)F)cc4)oc23)ccc1OC1CCOCC1 [Compound A85]
–	3 to 50 µM	0.3 to 3 µM	COCCn1cc(-c2cc3nccc(-c4ccc(OC5CCOCC5)c(C#N)c4)c3o2)cn1 [Compound A8, 5-{2-[1-(2-methoxy-ethyl)-1H-pyrazol-4-yl]-furo[3,2-b]pyridin-7-yl}-2-(tetrahydro-pyran-4-yloxy)-benzonitrile]
–	< 0.3 µM	< 0.3 µM	COc1cc(-c2cc3nccc(-c4ccc(OC5CCOCC5)c(C#N)c4)c3o2)ccc1C(=O)N1CC[C@@H](O)C1 [Compound A98]
–	< 0.3 µM	< 0.3 µM	N#Cc1cc(-c2ccnc3cc(-c4ccc(C(=O)NCCN5CCC(F)(F)CC5)cc4)oc23)ccc1OC1CCOCC1 [Compound A83]
–	< 0.3 µM	< 0.3 µM	Cn1cc(-c2cc3nccc(-c4ccc(OC5CCOCC5)c(C#N)c4)c3o2)cn1 [Compound A46]
–	< 0.3 µM	< 0.3 µM	COc1cc(-c2cc3nccc(-c4ccc(OCC5CC5)c(C#N)c4)c3o2)ccc1C(=O)N1CCNCC1 [Compound A50]
–	< 0.3 µM	< 0.3 µM	CN(C)CCN(C)C(=O)c1ccc(-c2cc3nccc(-c4ccc(OC5CCOCC5)c(C#N)c4)c3o2)cc1 [Compound A28, 4-{7-[3-cyano-4-(tetrahydro-pyran-4-yloxy)-phenyl]-furo[3,2-b]pyridin-2-yl}-N-(2-dimethylamino-ethyl)-N-methyl-benzamide]
–	< 0.3 µM	< 0.3 µM	N#Cc1cc(-c2ccnc3cc(-c4cnn(C5CCN(CCO)CC5)c4)sc23)ccc1OC1CCOCC1 [Compound A97]

Compound	IC50 (phospho-IRF3 @ Ser 386)	IC50 [1]	IC50 (IKKε)
CC(C)(C)OCCNC(=O)c1ccc(-c2cc3nccc(-c4ccc(OC5CCOCC5)c(C#N)c4)c3o2)cc1 [Compound A21, N-(2-tert-butoxy-ethyl)-4-{7-[3-cyano-4-(tetrahydro-pyran-4-yloxy)-phenyl]-furo[3,2-b]pyridin-2-yl}-benzamide]	–	0.3 to 3 µM	0.3 to 3 µM
